In one data set the target is T1, human H3 receptor (Homo sapiens, UniProt Q9Y5N1).
T1 construct: expressed in transfected cells; membrane preparation
As to the kind of experiment: Human H3 radioligand binding ([3H]-N-alpha-methylhistamine, SPA). Particulars: membranes of CHO cells expressing human H3 receptor; [3H]-N-alpha-methylhistamine about 1 nM. Here is the method:
(§1) Methods: CHO cells stably expressing the human H3 receptor (GenBank: NM_007232) were harvested and cell pellets were frozen (−80° C.). Cell pellets were resuspended in 5 mM Tris-HCl, pH 7.5 with […] and a cocktail of protease inhibitors (Complete Protease Inhibitior Tablets, Roche Diagnostics). Cells were disrupted using a polytron cell homogenizer and the suspension was centrifuged at 1000×g for 10 minutes at 4° C. The pellet was discarded and the supernatant centrifuged at 40,000×g for 30 min at 4° C. This membrane pellet was washed in membrane buffer containing 50 mM Tris-HCl, pH 7.5 with 0.6 mM EDTA, 5 mM MgCl2 and protease inhibitors, recentrifuged as above and the final pellet resuspended in membrane buffer plus 250 mM sucrose and frozen at −80° C.
(§2) Radioligand Binding. Membranes were resuspended in 50 mM Tris HCl (pH 7.4), 5 mM MgCl2, 0.1% BSA. The membrane suspensions (10 μg protein per well) were incubated in a 96 well microtiter plate with [^3H]-N-alpha-methylhistamine (approximately 1 nM final concentration), test compounds at various concentrations (0.01 nM-30 μM) and scintillation proximity beads (Perkin Elmer, FlashBlueGPCR Scintillating Beads) in a final volume of 80 μl for 4 hours at room temperature, protected from light. Non-specific binding was determined in the presence of 10 μM clobenpropit. Radioligand bound to receptor, and therefore in proximity to the scintillation beads, was measured using a MicroBeta scintillation counter.

For data set [1], the target named is T2, rat histamine H3 receptor (Rattus norvegicus, UniProt Q9QYN8).
T2 construct: encoding the entire 445-amino-acid rat histamine H3 receptor; expressed in transfected cells; membrane preparation
T2 sequence (Q9QYN8 whole entry): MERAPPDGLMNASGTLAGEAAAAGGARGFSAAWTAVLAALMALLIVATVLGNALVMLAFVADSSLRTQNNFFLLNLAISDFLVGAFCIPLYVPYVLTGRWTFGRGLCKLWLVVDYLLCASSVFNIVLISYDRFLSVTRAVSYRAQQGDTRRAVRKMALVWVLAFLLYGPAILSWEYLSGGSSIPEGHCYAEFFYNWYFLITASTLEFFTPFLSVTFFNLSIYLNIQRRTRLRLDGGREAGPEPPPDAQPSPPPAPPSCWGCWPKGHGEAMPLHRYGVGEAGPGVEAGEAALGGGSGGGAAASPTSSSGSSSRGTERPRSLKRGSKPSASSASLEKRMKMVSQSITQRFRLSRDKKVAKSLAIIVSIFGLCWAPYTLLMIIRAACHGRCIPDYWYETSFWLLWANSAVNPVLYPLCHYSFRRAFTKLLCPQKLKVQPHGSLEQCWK
The data set can be described thus: Rat H3 radioligand binding ([3H]-N-alpha-methylhistamine, SPA). Particulars: membranes of CHO-A3 cells expressing rat H3 receptor; [3H]-N-alpha-methylhistamine about 1 nM.
Excerpt: as §1, with “Cell line development and membrane preparation. The rat” for “Methods: CHO cells stably expressing the human”, “cDNA was PCR amplified from reverse-transcribed RNA pooled from rat thalamus, hypothalamus, striatum and prefrontal cortex with a sequence corresponding to by #338-1672 of Genbank file #NM_053506, encoding the entire 445-amino-acid rat histamine H3 receptor. This was engineered into the pIRES-neo3 mammalian expression vector, which was stably transfected into the CHO-A3 cell line (Euroscreen, Belgium), followed by clonal selection by limiting dilution. Cells” for “(GenBank: NM_007232)”
as §2

Ki and melting point data for 14 molecules are collected here from patent US8524713B2, “Substituted spirocyclic piperidine derivatives as histamine-3 (H3) receptor ligands” (Cephalon, Inc, priority 2008, dated 2013).

The pKi is the negative decadic logarithm of the Ki, by convention in mol/L. Lower therefore signals a high Ki. By melting point is commonly meant the temperature, or range, at which the solid turns liquid.

pKi: −log10 of the molar value.

T1 sequence (Q9Y5N1 whole entry): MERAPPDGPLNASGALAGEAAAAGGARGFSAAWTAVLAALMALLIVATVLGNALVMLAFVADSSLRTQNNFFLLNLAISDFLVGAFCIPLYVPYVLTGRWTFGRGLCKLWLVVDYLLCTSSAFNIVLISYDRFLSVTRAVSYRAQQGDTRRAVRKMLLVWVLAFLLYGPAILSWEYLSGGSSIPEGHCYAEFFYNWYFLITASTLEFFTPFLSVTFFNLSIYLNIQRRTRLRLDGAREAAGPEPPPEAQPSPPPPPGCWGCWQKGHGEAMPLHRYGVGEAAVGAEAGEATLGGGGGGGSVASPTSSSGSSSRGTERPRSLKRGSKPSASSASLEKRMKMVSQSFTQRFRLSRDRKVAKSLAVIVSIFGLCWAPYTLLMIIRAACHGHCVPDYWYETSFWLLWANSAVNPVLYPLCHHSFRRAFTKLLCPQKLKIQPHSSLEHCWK

`Cc1cc(=O)[nH]nc1-c1ccc2c(c1)CCC1(CCN(C3CCC3)CC1)O2` [Example 13, 1′-Cyclobutyl-6-(5-methyl-2H-pyridazin-3-one-6-yl)-spiro[3,4-dihydrobenzopyran-2,4′-piperidine]] had a melting point of 270 to 272 °C. This molecule also had a pKi on human H3 receptor above 6.70. Moreover, the pKi in data set [1] was above 6.70.
Turning to `Clc1ccc(-c2ccc3c(c2)CC2(CCN(C4CCC4)CC2)O3)nn1` [Example 15, 1′-Cyclobutyl-5-(6-chloropyridazin-3-yl)spiro[benzofuran-2(3H)-4′-piperidine]], the melting point lay within 193 to 194 °C. The pKi on human H3 receptor was above 6.70. In data set [1], this molecule showed a pKi above 6.70.
`Cn1nc(-c2ccc3c(c2)CCC2(CCN(C4CCC4)CC2)O3)ccc1=O` [Example 20] returned a melting point of 147 to 149 °C. Also, the pKi on human H3 receptor was above 6.70. Besides, in data set [1], the pKi is above 6.70.
Molecule `Cc1cc2c(cc1-c1ccc(=O)[nH]n1)COC1(CCN(C3CCC3)CC1)O2` [Example 29] yielded a melting point of 230 to 232 °C. The pKi at human H3 receptor was 6.00 to 6.70. Besides, in data set [1], the pKi was 6.00 to 6.70.
Take `CC1CC(=O)NN=C1c1ccc2c(c1)CC1(CCN(C3CCC3)CC1)O2` (stereo not drawn) [Example 3, 6-(1-Cyclobutyl-spiro[benzofuran-2(3H),4′-piperidine]-5-yl)-5-methyl-4,5-dihydro-2H-pyridazin-3-one]: the melting point lay in the range of 213 to 215 °C. This molecule gave a pKi on human H3 receptor above 6.70. Moreover, the pKi in data set [1] was 6.00 to 6.70.
The matching figures for `O=c1[nH]nc(-c2ccc3c(c2)COC2(CCN(C4CCC4)CC2)O3)c2ccccc12` [Example 32]: 258 to 259 °C, above 6.70 and above 6.70.
In the case of `O=C1CCC(c2ccc3c(c2)CCC2(CCN(C4CCC4)CC2)O3)=NN1` [Example 5], the melting point fell in the range of 242 to 243.5 °C. The molecule also had a negative-log Ki (pKi) at human H3 receptor above 6.70. Moreover, in data set [1], the pKi was above 6.70.
The molecule `O=c1cc(-c2ccccc2)c(-c2ccc3c(c2)COC2(CCN(C4CCC4)CC2)O3)n[nH]1` [Example 33] returned a melting point of 260 to 262 °C. On human H3 receptor, this molecule had a negative logarithm of the Ki (pKi) above 6.70. This molecule also had a negative-log Ki (pKi) in data set [1] above 6.70.
The molecule `O=c1ccc(-c2ccc3c(c2)CCC2(CCN(C4CCC4)CC2)O3)n[nH]1` [Example 21] returned a melting point of 273 to 275 °C. Further, the pKi on human H3 receptor was above 6.70. This molecule had a pKi in data set [1] above 6.70.
As to `O=c1ccc(-c2ccc3c(c2)COC2(CCN(C4CCC4)CC2)O3)n[nH]1` [Example 28], the melting point was in the range of 273 to 275 °C. The molecule also showed a pKi on human H3 receptor above 6.70. The molecule also gave a pKi in data set [1] above 6.70.
Consider `CC1CC(=O)NN=C1c1ccc2c(c1)CCC1(CCN(C3CCC3)CC1)O2` (stereo not drawn) [Example 12, 1′-Cyclobutyl-6-(5-methyl-4,5-dihydro-2H-pyridazin-3-one-6-yl)-spiro[3,4-dihydrobenzopyran-2,4′-piperidine]], for which the melting point was in the range of 207 to 209 °C. The same molecule gave a pKi on human H3 receptor above 6.70. In addition, the pKi in data set [1] is above 6.70.
Turning to `O=c1cc(-c2ccc3c(c2)CCC2(CCN(C4CCC4)CC2)O3)cn[nH]1` [Example 19], the melting point lay in the range of 216 to 219 °C. The pKi at human H3 receptor was above 6.70. In data set [1], this molecule had a pKi above 6.70.
With `O=c1ccc(-c2ccc3c(c2)CC2(CCN(C4CCC4)CC2)O3)n[nH]1` [Example 16, 1′-Cyclobutyl-5-(6-oxo-1,6-dihydropyridazin-3-yl) spiro[benzofuran-2(3H)-4′-piperidine]], the melting point lay within 227 to 228 °C. The molecule further showed a pKi at human H3 receptor above 6.70. This molecule gave a pKi in data set [1] above 6.70.
Molecule `Cc1cc(=O)[nH]nc1-c1ccc2c(c1)CC1(CCN(C3CCC3)CC1)O2` [Example 4, 6-(Cyclobutyl-spiro[benzofuran-2(3H),4′-piperidine]-5-yl)-5-methyl-2H-pyridazin-3-one] showed a melting point of 243 to 245 °C. The molecule further had a pKi at human H3 receptor above 6.70. Moreover, in data set [1], the pKi is above 6.70.
